Where no end group is shown, it is not given here.
Experiments:
recombinant GST-CETP = test: Anti-protein ELISA of sera of immunised mice, plates coated with recombinant GST-CETP; format: in vivo; conditions: sera of immunised mice
Text: (§1) FIGS. 12a and 12b show the in vivo induction of CETP specific antibodies by the administration of the mimotopes of the invention. Titers to p4073 and its correlation to titers to CETP of selected groups (which show high titers against p4073): gr.4, gr.9, gr.10, gr.14, gr.16-20/gr.1 (KLH), gr.2 (original epitope) as controls. Coating: recombinant GST-CETP or purified rabbit CETP, respectively:
(§2) Sera of each group (5 Balb/c mice each) were combined, diluted 1:100 and tested on ELISA plates coated with recombinant GST-CETP or rabbit CETP, respectively. Detection of bound antibodies was with algG.
(§3) Titers to injected peptides as well as to the original CETP epitope were determined. In addition, for selected sera also immune response to CETP protein was measured (Results see FIGS. 7a to 7d and FIGS. 19a to 19e).

rabbit CETP = test: Anti-protein ELISA of sera of immunised mice, plates coated with purified rabbit CETP; format: in vivo, mouse; conditions: sera of immunised mice, purified rabbit CETP
Text: as §1, §2, §3

original epitope (p4073) = test: Titer to the original CETP epitope in sera of immunised animals (peptide ELISA); format: in vivo, mouse; conditions: for titer, original epitope-BSA: FIG. 11, Balb/c mice, 30 μg peptide, Alum as adjuvant, S3, coating 1 μM p4073-BSA, detection αIgG
Experimental: (§4) Balb/c mice/30 μg Peptide, 2 injections in 2 week intervals. S3=2 weeks after 3rd injection. Alum as adjuvant. Titers against original epitope (p4073) induced by injection of mimotopes. Well coating: 50 μl of 1 μM p4073-BSA or 1 μg/ml activated KLH. Detection: αIgG:
(§5) Inhibiting as well as some non-inhibiting peptides were coupled to KLH and injected into mice (wildtype or CETP-transgenic mice; subcutaneously into the flank or intra-dermaly into the ears) or rabbits (subcutaneously into the flank) together with an appropriate adjuvant (aluminium hydroxide and Gerbu 100 for mice and aluminium hydroxide or CFA/IFA for rabbits).
as §3
(§6) Subcutaneous injections in the flank were performed in week 1, week 3 and week 7 with 30 μg peptide-KLH per mouse. Intradermal injections in the ear were performed in week 1, week 3 and week 6 with 10 μg peptide-KLH per mouse. Sera were taken 2 weeks after the 3rd injection. Vaccine formulation with Alum (always 1 mg per mouse): up to 250 μl, injected into one flank. The Alum formulation with 1 ml per mouse (500 μl into each flank) was in 1×PBS as buffer.
Vaccine formulation with Gerbu Adjuvant 100 (Gerbu Cat. Nr. #3100; always 50 μl adjuvant per mouse): 200 μl, 100 μl injected into each flank comprising 1×HEPES as buffer. […]

irrelevant peptide-BSA = test: Titer to irrelevant peptide in sera of immunised animals (peptide ELISA); format: in vivo, mouse; conditions: for titer, irrelevant peptide-BSA: FIG. 11, Balb/c mice, 30 μg peptide, Alum as adjuvant, S3, detection αIgG; for titer, p irrelevant: Table 1, mice, sera 2 weeks after 3rd injection
Experimental: as §4, §6
Vaccine formulation with Gerbu Adjuvant 100 (Gerbu Cat. Nr. #3100; always 50 μl adjuvant per mouse): 200 μl, 100 μl injected into each flank comprising 1×HEPES as buffer.
Female Balb/c mice, five mice per group, were subcutaneously immunized with 30 μg peptide coupled to KLH. Control groups were administered KLH or C-[…] (SEQ ID NO. 147). As adjuvant alum was used. […] The in vitro ELISA assay to determine the antibody titer was performed with pooled sera after two vaccinations in a two week interval (S2; see FIGS. 7a to 7d). The wells of the ELISA plate were coated with KLH (positive control), mimotope-BSA conjugate, C-[…] (SEQ ID NO. 147) and a irrelevant peptide-BSA conjugate (negative control). The detection was performed with anti-mouse IgG.

injected peptide-BSA = test: Titer to the injected peptide in sera of immunised animals (peptide ELISA); format: in vivo, mouse; conditions: FIG. 11; Balb/c mice, 30 μg peptide, Alum as adjuvant; S3 = 2 weeks after 3rd injection; detection αIgG
Experimental: Balb/c mice/30 μg Peptide, 2 injections in 2 week intervals. S3=2 weeks after 3rd injection. Alum as adjuvant. […] Detection: αIgG:
as §5, §3
as §6, with “buffer. […]” for “buffer.”

CETP = CETP activity assay: human serum mixed with serum from vaccinated wild-type mice; format: biochemical; conditions: FIGS. 15 to 17 and remarks in the example set-up table; sera of vaccinated mice

Row | Substance | titer, original epitope-BSA (original epitope (p4073)) | titer, irrelevant peptide-BSA (irrelevant peptide-BSA) | titer, injected peptide-BSA (injected peptide-BSA) | ELISA signal, recombinant GST-CETP (recombinant GST-CETP; FIG. 12a) | ELISA signal, rabbit CETP (rabbit CETP; FIG. 12a) | further results
1 | p4343-KLH: C-FYFPAHVSIDWLQSLS coupled to KLH (CFYFPAHVSIDWLQSLS; also: coupled to KLH) | 2.900 | 10 | 5.580 | – | – | ELISA signal, recombinant GST-CETP (recombinant GST-CETP; FIG. 12b): 0.61; ELISA signal, rabbit CETP (rabbit CETP; FIG. 12b): 1.05; inhibition of CETP activity in human serum (in words) (CETP): C-33: recogn. protein/not in-
2 | p4352-KLH: C-FGFPAHVSIDWLQSIS coupled to KLH (CFGFPAHVSIDWLQSIS; also: coupled to KLH) | 12.070 | 10 | 19.680 | 0.48 | 0.28 | –
3 | p4341-KLH: C-WGFPAHVSIDWLQSLS coupled to KLH (CWGFPAHVSIDWLQSLS; also: coupled to KLH) | 5.500 | 10 | 10.350 | 0.39 | 0.18 | –
4 | p4228-KLH: P12-21; C-RMFPESFLDTLW coupled to KLH (CRMFPESFLDTLW; also: coupled to KLH) | – | – | – | – | – | titer, p irrelevant (irrelevant peptide-BSA; KLH/Alum i.d. (10 μg peptide)): no titer; titer, p irrelevant (irrelevant peptide-BSA; KLH/Gerbu s.c. (30 μg peptide)): no titer
5 | p4181-KLH: F3-6 C-NFLKTLS coupled to KLH (CNFLKTLS; also: coupled to KLH) | – | – | – | – | – | titer, p irrelevant (irrelevant peptide-BSA; Alum s.c. (30 μg peptide)): no titer; titer, p irrelevant (irrelevant peptide-BSA; KLH/Alum i.d. (10 μg peptide)): no titer
6 | p4366-KLH: C-FGFPSHLIIDWSQSLS coupled to KLH (CFGFPSHLIIDWSQSLS; also: coupled to KLH) | 3.600 | 10 | 4.700 | – | – | ELISA signal, recombinant GST-CETP (recombinant GST-CETP; FIG. 12b): 0.4; ELISA signal, rabbit CETP (rabbit CETP; FIG. 12b): 0.65
7 | p4353-KLH: C-FGFPAHVSIDWLQSLT coupled to KLH (CFGFPAHVSIDWLQSLT; also: coupled to KLH) | 8.650 | 10 | 11.200 | 0.57 | 0.39 | –
8 | p4184-KLH: F3-18 C-DFLRTLT coupled to KLH (CDFLRTLT; also: coupled to KLH) | – | – | – | – | – | titer, p irrelevant (irrelevant peptide-BSA; KLH/Alum i.d. (10 μg peptide)): no titer
9 | p4347-KLH: C-FGFPAHVSIDWLQLLS coupled to KLH (CFGFPAHVSIDWLQLLS; also: coupled to KLH) | 9.160 | 10 | 12.000 | 0.35 | 0.2 | –
10 | C-TIYDSFLDSLAS (N-terminal Cys; CETP mimotope) [P12-37] | – | – | – | – | – | antibody response to the original CETP epitope (in words) (original epitope (p4073); coupled to KLH, mice and rabbits): did not induce an antibody response to the original epitope
11 | p4344-KLH: C-FDFPAHVSIDWLQSLS coupled to KLH (CFDFPAHVSIDWLQSLS; also: coupled to KLH) | 3.580 | 10 | 12.200 | – | – | ELISA signal, recombinant GST-CETP (recombinant GST-CETP; FIG. 12b): 0.35; ELISA signal, rabbit CETP (rabbit CETP; FIG. 12b): 0.43
12 | p4359-KLH: C-FGFPAHIIIDWLQSLS coupled to KLH (CFGFPAHIIIDWLQSLS; also: coupled to KLH) | 5.340 | 10 | 8.540 | 0.79 | 0.54 | –

— patent US8618046B2, “Treatment of atherosclerosis with cholesterol ester transport protein mimotopes” (Affiris AG, priority 2007, dated 2013)
